# Laboratory results reported in patent US8354436B2 (4SC Discovery GmbH, priority 2011, dated 2013).
# pIC50: −log10 of the molar value. Read-outs that look alike come from different tables or passages of the source.
# Key:
# Type in all cases: cell-based
# Conditions in all cases: 48 hours
# [1] = test system: IL-17FF; assay: IL-17FF production by PHA-stimulated human PBMC (human IL-17F ELI-Pair)
# Procedure, shortened: (§1)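 Healthy-donor PBMC (1×10^5 cells/well) activated with 2 μg/ml PHA and incubated with compounds for 48 h. Supernatant IL-17AA/AF read by Luminex BioPlex, IL-17AA, IL-17FF and IFN-γ by ELISA. Screening at 10, 1, 0.1 and 0.01 μM; IC50 from semilogarithmic titrations.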
# [2] = test system: IFN-γ; assay: IFN-γ production by PHA-stimulated human PBMC (OptEIA human IFN-g ELISA)
# Procedure, shortened: as §1
# [3] = test system: PBMC from healthy human donors; assay: T cell proliferation assay (PHA-stimulated human PBMC, BrdU ELISA)
# Procedure, shortened: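 Healthy-donor PBMC isolated on Ficoll, seeded at 1×10⁵ cells/well in RPMI with 10% dialysed FCS, stimulated with 2 μg/ml PHA in presence of test compound. Proliferation read after 48 hours by BrdU-incorporation ELISA.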
# [4] = PHA-stimulated human PBMC, column B, read-out: IC50 (IL-17FF)
# [5] = PHA-stimulated human PBMC, column C, read-out: IC50 (IFNγ)
# [6] = PHA-stimulated human PBMC, column D, read-out: IC50 (Tcell proliferation)
# [7] = human PBMC, 2 μg/ml PHA, read-out: B: IC50 (IL-17FF)
# [8] = human PBMC, 2 μg/ml PHA, read-out: C: IC50 (IFNγ)
# [9] = human PBMC, 2 μg/ml PHA, read-out: D: IC50 (Tcell proliferation)
SMILES,"pIC50 [1, 4]","pIC50 [2, 5]","pIC50 [3, 6]","pIC50 [1, 7]","pIC50 [2, 8]","pIC50 [3, 9]"
"COC(=O)c1c(-c2c(F)cccc2Cl)noc1-c1cnn(-c2cc(C)nc(C)n2)c1C(F)(F)F [Example I-119, methyl 3-(2-chloro-6-fluorophenyl)-5-(1-(2,6-dimethylpyrimidin-4-yl)-5-(trifluoromethyl)-1H-pyrazol-4-yl)isoxazole-4-carboxylate]",6.00 to 7.00,6.00 to 7.00,6.00 to 7.00,,,
"Nc1c(-c2c(F)cccc2Cl)noc1-c1cnn(-c2cccc(Cl)c2)c1C(F)(F)F [IB-36, 3-(2-chloro-6-fluorophenyl)-5-(1-(3-chlorophenyl)-5-(trifluoromethyl)-1H-pyrazol-4-yl)isoxazol-4-amine]",6.00 to 7.00,6.00 to 7.00,6.00 to 7.00,,,
"CNC(=O)c1c(-c2c(F)cccc2Cl)noc1-c1cnn(-c2cccnc2)c1C(F)(F)F [IB-55, 3-(2-chloro-6-fluorophenyl)-N-methyl-5-(1-(pyridin-3-yl)-5-(trifluoromethyl)-1H-pyrazol-4-yl)isoxazole-4-carboxamide]",5.00 to 6.00,5.00 to 6.00,5.00 to 6.00,,,
COC(=O)c1c(-c2c(F)cccc2Cl)noc1-c1cnn(CC(C)C)c1C(F)(F)F [Example I-28],7.00 to 8.00,7.00 to 8.00,6.00 to 7.00,,,
"CSC(=O)c1c(-c2c(F)cccc2Cl)noc1-c1cnn(-c2cccnc2)c1C(F)(F)F [IB-68, S-methyl 3-(2-chloro-6-fluorophenyl)-5-(1-(pyridin-3-yl)-5-(trifluoromethyl)-1H-pyrazol-4-yl)isoxazole-4-carbothioate]",> 8.00,> 8.00,7.00 to 8.00,,,
"CNC(=O)c1c(-c2ccccc2Cl)noc1-c1cnn(-c2cccc(F)c2)c1C(F)(F)F [Example I-96, 3-(2-chlorophenyl)-5-(1-(3-fluorophenyl)-5-(trifluoro-methyl)-1H-pyrazol-4-yl)-N-methylisoxazole-4-carboxamide]",6.00 to 7.00,6.00 to 7.00,6.00 to 7.00,,,
"CO/C(=N\c1c(-c2c(F)cccc2Cl)noc1-c1cnn(-c2cccc(F)c2)c1C(F)(F)F)C(F)(F)F [Example I-136, (Z)-methyl N-(3-(2-chloro-6-fluorophenyl)-5-(1-(3-fluorophenyl)-5-(trifluoromethyl)-1H-pyrazol-4-yl)isoxazol-4-yl)-2,2,2-trifluoroacetimidate]",6.00 to 7.00,7.00 to 8.00,6.00 to 7.00,,,
"Fc1cccc(Cl)c1-c1noc(-c2cnn(-c3ccncc3)c2C(F)(F)F)c1-c1cnco1 [Example B-33, 3-(2-chloro-6-fluorophenyl)-4-(oxazol-5-yl)-5-(1-(pyridin-4-yl)-5-(trifluoromethyl)-1H-pyrazol-4-yl)isoxazole]",,,,5.00 to 6.00,6.00 to 7.00,5.00 to 6.00
"Cc1nnc(-c2c(-c3c(F)cccc3Cl)noc2-c2cnn(-c3cccnc3)c2C(F)(F)F)s1 [Example B-21, 3-(2-chloro-6-fluorophenyl)-4-(5-methyl-1,3,4-thiadiazol-2-yl)-5-(1-(pyridin-3-yl)-5-(trifluoromethyl)-1H-pyrazol-4-yl)isoxazole]",,,,7.00 to 8.00,7.00 to 8.00,7.00 to 8.00
"CCOC(=O)c1c(-c2c(Cl)cncc2Cl)noc1-c1cnn(-c2ccccn2)c1C(F)(F)F [IB-5, ethyl 3-(3,5-dichloropyridin-4-yl)-5-(1-(pyridin-2-yl)-5-(trifluoromethyl)-1H-pyrazol-4-yl)isoxazole-4-carboxylate]",5.00 to 6.00,6.00 to 7.00,5.00 to 6.00,,,
"Fc1cccc(Cl)c1-c1noc(-c2cnn(-c3cccc(Cl)c3)c2C(F)(F)F)c1-c1cnco1 [Example 8, 3-(2-chloro-6-fluorophenyl)-5-(1-(3-chlorophenyl)-5-(trifluoromethyl)-1H-pyrazol-4-yl)-4-(oxazol-5-yl)isoxazole]",,,,> 8.00,> 8.00,> 8.00
